Experimental data reported in patent US7825102B2, “Treatment of dry eye conditions” (Can-Fite Biopharma Ltd., priority 2004, dated 2010).
Entries after “also recorded” stand apart in the source; their conditions may differ.

Columns and labels:
Type in all cases: in vivo, human
[1] = tested on: patient with rheumatoid arthritis (RA) and secondary Sjogren symptoms, mainly manifested by dry eye; assay: Phase 2 clinical trial: dry eye symptoms of one patient with RA and secondary Sjogren symptoms
Description: A patient with rheumatoid arthritis (RA) and secondary Sjogren symptoms, mainly manifested by dry eye, treated for years with eye drops (tear substitutes) participated in a phase 2 clinical trial with IB-MECA for the treatment of active RA. […] The patient took part in a phase 2, multicenter, randomized, double-blind, parallel-group, dose-ranging study of the safety and preliminary efficacy of daily IB-MECA administered orally for 12 weeks to patients with active rheumatoid arthritis. The patient is a person with a 7 year history of RA, previously treated with 3 disease-modifying anti-rheumatic drugs (DMARDs), and a history of 2-3 years of dry eyes treated with tear substitutes a few times a day. After a 4 week DMARD washout period, the patient was treated with a blinded dose of IB-MECA—either 0.1, 1.0 or 4.0 mg q 12 h for 12 weeks. They are currently continuing IB-MECA treatment under a long term extension protocol of the original 12 weeks study.

[2] = tested on: RA patients who also suffered from Sicca (dry eyes); assay: Schirmer test in RA patients with Sicca given oral IB-MECA capsules twice daily
Procedure: The IB-MECA was formulated in oval softgel capsules. The capsules contained solutions of IB-MECA in Cremophor RH 40 and Miglyol 812. The capsules contained a dose of 0.1, 1 or 4 mg of IB-MECA, the exact composition of each capsules' type is shown in the following Tabels 1-3: The capsules with IB-MECA were given to patients orally twice daily. All patients had rheumatoid arthritis (RA) and were give IB-MECA within the framework of a clinical study aimed at testing the effect of IB-MECA in modifying RA disease symptoms in these patients. The patients received randomly capsules of one of the above there doses. The patients received the IB-MECA for a period of 12 weeks. 4 out of the treated patients also suffered from Sicca and the effect of IB-MECA on their dry eye symptoms was examined as well. Specifically, four patients at the age 58±4 years who suffered from RA for 8±2 years were followed. At base line, the patients had elevated levels of rheumatoid factor, i.e., 313±120 IU/ml (0<normal<40) and had suffered from dry eyes for 5±1.6 years. Upon treatment with IB-MECA for 6.25±1.1 months, an improvement in Schirmer's test from 8.5±1.4 mm to 15.6±2.9 mm was observed.

[3] = tested on: patient with active rheumatoid arthritis; assay: Phase 2 clinical trial: condition of the RA in the same patient; conditions: one patient; blinded dose 0.1, 1.0 or 4.0 mg q 12 h oral, 12 weeks
Description: The patient took part in a phase 2, multicenter, randomized, double-blind, parallel-group, dose-ranging study of the safety and preliminary efficacy of daily IB-MECA administered orally for 12 weeks to patients with active rheumatoid arthritis. The patient is a person with a 7 year history of RA, previously treated with 3 disease-modifying anti-rheumatic drugs (DMARDs), and a history of 2-3 years of dry eyes treated with tear substitutes a few times a day. After a 4 week DMARD washout period, the patient was treated with a blinded dose of IB-MECA—either 0.1, 1.0 or 4.0 mg q 12 h for 12 weeks. They are currently continuing IB-MECA treatment under a long term extension protocol of the original 12 weeks study.

[4] = Patient 3, dose 4.0 twice daily oral, 7 months treatment, base line 5

Q: Which “symptoms of dry eye (secondary Sjogren's syndrome)” value ([1]; blinded dose 0.1, 1.0 or 4.0 mg q 12 h oral, 12 weeks plus extension) does the source give for `CNC(=O)[C@H]1O[C@@H](n2cnc3c(NCc4cccc(I)c4)ncnc32)[C@H](O)[C@@H]1O` [IB-MECA, N^6-(3-iodobenzyl)-adenosine-5′-N-methyluronamide] here?
A: improved significantly; also recorded: substantial improvement

Q: And the “time of IB-MECA administration after which tear substitutes were no longer needed” value ([1]; patient-reported, blinded dose 0.1, 1.0 or 4.0 mg q 12 h oral)?
A: 3-4 weeks

Q: And the “current dry eye symptoms under continued treatment” value ([1]; patient-reported, long term extension protocol)?
A: no symptoms of dry eye

Q: And the “Schirmer test Left eye End of study” value ([2]; Mean of 4 patients, doses 0.1-4.0 twice daily, mean 6.25 months treatment, base line mean 6.75)?
A: 16.5 mm

Q: And the “Schirmer test Right eye End of study” value ([2]; Mean of 4 patients, doses 0.1-4.0 twice daily, mean 6.25 months treatment, base line mean 10.25)?
A: 14.75 mm

Q: And the “Schirmer test Left eye End of study” value ([2]; Patient 1, dose 0.1 twice daily oral, 4 months treatment, base line 6)?
A: 9 mm

Q: What about the “Schirmer test Right eye End of study” value ([2]; Patient 1, dose 0.1 twice daily oral, 4 months treatment, base line 14) of the same compound?
A: 9 mm

Q: What about the “Schirmer test Left eye End of study” value ([2]; Patient 2, dose 1.0 twice daily oral, 5 months treatment, base line 10) of the same compound?
A: 32 mm

Q: What about the “Schirmer test Right eye End of study” value ([2]; Patient 2, dose 1.0 twice daily oral, 5 months treatment, base line 15) of the same compound?
A: 23 mm

Q: And the “Schirmer test Left eye End of study” value [2, 4]?
A: 16 mm

Q: And the “Schirmer test Right eye End of study” value [2, 4]?
A: 17 mm

Q: And the “Schirmer test Left eye End of study” value ([2]; Patient 4, dose 1.0 twice daily oral, 9 months treatment, base line 6)?
A: 9 mm

Q: What about the “Schirmer test Right eye End of study” value ([2]; Patient 4, dose 1.0 twice daily oral, 9 months treatment, base line 7) of the same compound?
A: 10 mm

Q: What about the “Schirmer's test after treatment” value ([2]; four RA patients, treatment for 6.25±1.1 months, improvement from 8.5±1.4 mm at base line) of the same compound?
A: 15.6±2.9 mm

Q: What about the “condition of the RA (swollen and tender joints, ESR and CRP, global assessments, pain and disability)” value [3] of the same compound?
A: marked improvement
